Assay results: PubChem BioAssay AID1259408 (Genetic Toxicology Data Bank (GENE-TOX), 2018)
Activity calls are given as the source filed them. The rule behind the calls is not given here.

Test system: GENE-TOX genotoxicity assays, various organisms and cells
Assay: GENE-TOX mutagenicity studies
Conditions: for call: Assay Type: In vivo carcinogenicity studies
[1] = Species/Cell Type: Nonhuman, Assay Type: Sister-chromatid exchange (SCE) in vitro, Assay Code: SC2+D, Dose Response: With dose response, Evaluation Type: Evaluation B (Post-1980)
[2] = Species/Cell Type: Nonhuman, Assay Code: CCG+, Evaluation Type: Evaluation A (Pre-1980)
[3] = Species/Cell Type: Saccharomyces cerevisiae, Assay Type: Mitotic recombination or gene conversion, Assay Code: YEC+, Evaluation Type: Evaluation A (Pre-1980)
[4] = Species/Cell Type: Saccharomyces cerevisiae, Assay Type: Mitotic recombination or gene conversion, Assay Code: YEH+, Evaluation Type: Evaluation A (Pre-1980)
[5] = Species/Cell Type: Salmonella typhimurium (one or more of the five standard strains: TA98, TA100, TA1535, TA1537, and TA1538), Assay Type: Histidine reverse gene mutation, Ames assay, Assay Code: SAL-, Evaluation Type: Evaluation A (Pre-1980)
[6] = Species/Cell Type: Salmonella typhimurium (one or more of the five standard strains: TA98, TA100, TA1535, TA1537, and TA1538), Assay Type: Histidine reverse gene mutation, Ames assay, Assay Code: SAL+, Evaluation Type: Evaluation A (Pre-1980)
[7] = Species/Cell Type: Salmonella typhimurium (one or more of the five standard strains: TA98, TA100, TA1535, TA1537, and TA1538), Assay Type: Histidine reverse gene mutation, Ames assay, Assay Code: SALT, Evaluation Type: Evaluation A (Pre-1980)
[8] = Species/Cell Type: Allium cepa, Assay Type: Chromosome aberrations, Assay Code: ALC-, Evaluation Type: Evaluation A (Pre-1980)
[9] = Species/Cell Type: Salmonella typhimurium (one or more of the five standard strains: TA98, TA100, TA1535, TA1537, and TA1538), Assay Type: Histidine reverse gene mutation, Ames assay, Assay Code: SAL+*, Activation: With metabolic activation, Evaluation Type: Evaluation A (Pre-1980)
[10] = Species/Cell Type: Drosophila melanogaster, Assay Type: Sex-linked recessive lethal gene mutation, Assay Code: SRL+, Evaluation Type: Evaluation A (Pre-1980)
[11] = Species/Cell Type: Drosophila melanogaster, Assay Type: Sex-linked recessive lethal gene mutation, Assay Code: SRLT, Evaluation Type: Evaluation A (Pre-1980)
[12] = Species/Cell Type: Nonhuman, Assay Code: CCG+L, Evaluation Type: Evaluation A (Pre-1980)

c1ccc2c(c1)-c1cccc3cccc-2c13
mutagenic call (Species/Cell Type: Chinese hamster ovary (CHO) cells, Assay Type: Forward gene mutation at the HPRT locus, Assay Code: CHO+*, Activation: With metabolic activation, Evaluation Type: Evaluation B (Post-1980)): active; positive | mutagenic call (Species/Cell Type: Fischer rat embryo (RLV/1706) cells, Assay Type: Cell transformation, viral enhanced, Assay Code: CTRT, Evaluation Type: Evaluation A (Pre-1980)): no conclusion | mutagenic call [1]: active; positive | mutagenic call (Species/Cell Type: Nonhuman, Assay Type: Sister-chromatid exchange (SCE) in vivo, Assay Code: SC3-, Evaluation Type: Evaluation B (Post-1980)): inactive; negative

CNC(=O)Nc1nc(-c2ccc(OC)cc2)cs1
mutagenic call (Species/Cell Type: Salmonella typhimurium, Assay Type: Forward and reverse gene mutation, host-mediated assay, Assay Code: HMAT, Evaluation Type: Evaluation A (Pre-1980)): no conclusion

ClC(Cl)(Cl)Cl
mutagenic call (Species/Cell Type: Mouse, Sex: Male, Assay Type: Sperm morphology, Assay Code: SPI-, Evaluation Type: Evaluation A (Pre-1980)): inactive; negative | call [2]: active; positive | mutagenic call [3]: active; positive | mutagenic call [4]: active; positive | mutagenic call (Species/Cell Type: Saccharomyces cerevisiae, Assay Type: Reverse gene mutation, Assay Code: YER+, Evaluation Type: Evaluation A (Pre-1980)): active; positive | mutagenic call [5]: inactive; negative

CCOC(=O)CC(SP(=S)(OC)OC)C(=O)OCC (centres undefined) (tested in a mixture with another compound)
mutagenic call (Species/Cell Type: Hordeum vulgare (barley), Assay Type: Chromosome aberrations, Assay Code: HOC+, Evaluation Type: Evaluation A (Pre-1980)): active; positive

O=c1[nH]c2ccccc2n1CCCN1CCC(n2c(=O)[nH]c3cc(Cl)ccc32)CC1
mutagenic call (Species/Cell Type: Mammalian polychromatic erythrocytes, Assay Type: Micronucleus test, chromosome aberrations, Assay Code: MNT+U, Dose Response: Unconfirmed positive response, Evaluation Type: Evaluation B (Post-1980)): active; positive

CC1=CC(=C(c2ccc(N)c(S(=O)(=O)O)c2)c2ccc(N)c(S(=O)(=O)O)c2)C=C(S(=O)(=O)O)C1=N
mutagenic call (Species/Cell Type: Bacillus subtilis (H17 vs M45), Assay Type: Rec-assay, spot test, DNA effects (bacterial DNA repair), Assay Code: REWT, Evaluation Type: Evaluation A (Pre-1980)): no conclusion

O=[N+]([O-])c1ccc2c3c(cccc13)CC2
call [2]: active; positive | mutagenic call [6]: active; positive

CN(CCCCO)N=O
mutagenic call [7]: no conclusion

O=c1[nH]cnc2nc[nH]c12
mutagenic call [8]: inactive; negative | mutagenic call (Species/Cell Type: Arabidopsis species, Assay Type: Gene mutation, Assay Code: ARM-, Evaluation Type: Evaluation A (Pre-1980)): inactive; negative | mutagenic call (Species/Cell Type: Nonhuman, Assay Type: Sister-chromatid exchange (SCE) in vitro, Assay Code: SC2T, Evaluation Type: Evaluation B (Post-1980)): no conclusion

ClC(Br)Br
mutagenic call (Species/Cell Type: Human lymphocytes, Assay Type: Sister-chromatid exchange (SCE) in vitro, Assay Code: SCL+D, Dose Response: With dose response, Evaluation Type: Evaluation B (Post-1980)): active; positive | mutagenic call (Species/Cell Type: Human, Assay Type: Sister-chromatid exchange (SCE) in vitro, Assay Code: SC1+D, Dose Response: With dose response, Evaluation Type: Evaluation B (Post-1980)): active; positive | mutagenic call (Species/Cell Type: Nonhuman, Assay Type: Sister-chromatid exchange (SCE) in vivo, Assay Code: SC3+D, Dose Response: With dose response, Evaluation Type: Evaluation B (Post-1980)): active; positive

COc1cc2c(c3ccc4ccccc4c13)CC=C2C
mutagenic call [9]: active; positive

CCN(CC)CCn1nc2c3c(c(C)ccc31)Sc1ccccc1-2
mutagenic call [10]: active; positive | mutagenic call (Species/Cell Type: Mouse lymphoma (L5178Y) cells, Assay Type: Forward gene mutation at the thymidine kinase (TK) locus, chromosome aberrations, Assay Code: L51+, Evaluation Type: Evaluation A (Pre-1980)): active; positive | mutagenic call (Species/Cell Type: Neurospora crassa, Assay Type: Forward gene mutation, Assay Code: NEF+, Evaluation Type: Evaluation A (Pre-1980)): active; positive

c1ccc(NNc2ccccc2)cc1
call [2]: active; positive

Cn1cnc2ncn(C)c2c1=O
mutagenic call [8]: inactive; negative

CC(COc1ccc(C(C)(C)C)cc1)OS(=O)OCCCl (centres undefined)
call [2]: active; positive

O=NN(CCCCO)CCCCO
mutagenic call [7]: no conclusion

CCOC(=O)N(C)N=O
mutagenic call (Species/Cell Type: Arabidopsis species, Assay Type: Gene mutation, Assay Code: ARM+D, Dose Response: With dose response, Evaluation Type: Evaluation A (Pre-1980)): active; positive | mutagenic call (Species/Cell Type: Bacillus subtilis (H17 vs M45T), Assay Type: Rec-assay, spot test, DNA effects (bacterial DNA repair), Assay Code: REX+, Evaluation Type: Evaluation A (Pre-1980)): active; positive | mutagenic call [10]: active; positive | mutagenic call (Species/Cell Type: Drosophila melanogaster, Sex: Male, Assay Type: Heritable translocation test, chromosome aberrations, Assay Code: DHTT, Evaluation Type: Evaluation A (Pre-1980)): no conclusion | mutagenic call (Species/Cell Type: Escherichia coli polA (W3119 vs P3478), Assay Type: Rec-assay, DNA effects (bacterial DNA repair), Assay Code: RE1+, Evaluation Type: Evaluation A (Pre-1980)): active; positive | mutagenic call (Species/Cell Type: Hordeum vulgare (barley), Assay Type: Chromosome aberrations, Assay Code: HOC+D, Dose Response: With dose response, Evaluation Type: Evaluation A (Pre-1980)): active; positive | mutagenic call (Species/Cell Type: Hordeum vulgare (barley), Assay Type: Gene mutation, Assay Code: HOM+, Evaluation Type: Evaluation A (Pre-1980)): active; positive | call [2]: active; positive | mutagenic call (Species/Cell Type: Saccharomyces cerevisiae, Assay Type: Forward gene mutation, Assay Code: YEF+, Evaluation Type: Evaluation A (Pre-1980)): active; positive | mutagenic call [3]: active; positive | mutagenic call [4]: active; positive | mutagenic call [6]: active; positive | mutagenic call (Species/Cell Type: Schizosaccharomyces pombe, Assay Type: Reverse gene mutation, Assay Code: YEZ+, Evaluation Type: Evaluation A (Pre-1980)): active; positive

COP(=S)(Oc1cc(Cl)c(Br)cc1Cl)c1ccccc1 (centres undefined)
mutagenic call (Species/Cell Type: Nonhuman, Assay Type: Sister-chromatid exchange (SCE) in vitro, Assay Code: SC2+, Evaluation Type: Evaluation B (Post-1980)): active; positive

O=[N+]([O-])c1ccc(N2CCN(CCO)CC2)c2c1no[n+]2[O-]
mutagenic call [6]: active; positive

CCCN1CCN(c2ccc([N+](=O)[O-])c3no[n+]([O-])c23)CC1
mutagenic call [6]: active; positive

c1cc2cc3c4c(ccc5cc6c(c1CCC6)c2c54)CCC3
mutagenic call [9]: active; positive

CCCCC[CH2][Hg][Br]
mutagenic call (Species/Cell Type: Allium cepa, Assay Type: Chromosome aberrations, Assay Code: ALC+D, Dose Response: With dose response, Evaluation Type: Evaluation A (Pre-1980)): active; positive

CSc1ccc([C@H](O)[C@H](CO)NC(=O)C(Cl)Cl)cc1
mutagenic call [7]: no conclusion

COc1cc(Cl)c(OC)cc1Cl
mutagenic call (Species/Cell Type: Aspergillus nidulans, Assay Type: Aneuploidy, chromosome aberrations, Assay Code: ASN+, Evaluation Type: Evaluation A (Pre-1980)): active; positive | mutagenic call (Species/Cell Type: Aspergillus nidulans, Assay Type: Mitotic recombination, Assay Code: ASG+, Evaluation Type: Evaluation A (Pre-1980)): active; positive

O=c1c(=O)c2c3ccccc3cc3ccc4cccc1c4c32
mutagenic call (Species/Cell Type: Chinese hamster lung (V79) cells, Assay Type: Forward gene mutation at the HPRT or ouabain locus, Assay Code: V79-, Evaluation Type: Evaluation A (Pre-1980)): inactive; negative | mutagenic call [7]: no conclusion

CNP(=O)(N1CC1)N1CC1
mutagenic call [10]: active; positive

OCC1=CCN2CC[C@H](O)[C@@H]12
mutagenic call [11]: no conclusion

CCCCCc1cc(O)c2c(c1)OC(C)(C)[C@@H]1CC=C(C)C[C@@H]21
mutagenic call (Species/Cell Type: Fischer rat embryo (RLV/1706) cells, Assay Type: Cell transformation, viral enhanced, Assay Code: CTR-, Evaluation Type: Evaluation A (Pre-1980)): inactive; negative | mutagenic call (Species/Cell Type: Human lymphocytes, Assay Type: Micronucleus test in vitro, chromosome aberrations, Assay Code: MN7+, Evaluation Type: Evaluation A (Pre-1980)): active; positive

CCN(CC)c1ccc2c(-c3ccc(C(=O)O)cc3C(=O)[O-])c3ccc(=[N+](CC)CC)cc-3oc2c1
mutagenic call (Species/Cell Type: Mammalian polychromatic erythrocytes, Assay Type: Micronucleus test, chromosome aberrations, Assay Code: MNT-, Evaluation Type: Evaluation B (Post-1980)): inactive; negative | mutagenic call [1]: active; positive

ClC1=C(Cl)[C@]2(Cl)[C@H]3[C@H]([C@@H]4C=C[C@H]3C4)[C@@]1(Cl)C2(Cl)Cl
mutagenic call [11]: no conclusion | mutagenic call (Species/Cell Type: Mammalian polychromatic erythrocytes, Assay Type: Micronucleus test, chromosome aberrations, Assay Code: MNTT, Evaluation Type: Evaluation B (Post-1980)): no conclusion | call [12]: active; positive | mutagenic call (Species/Cell Type: Saccharomyces cerevisiae, Assay Type: Mitotic recombination or gene conversion, Assay Code: YEH-, Evaluation Type: Evaluation A (Pre-1980)): inactive; negative | mutagenic call [5]: inactive; negative

CC(=O)ON(C(C)=O)c1ccc(/C=C\c2ccccc2)cc1
mutagenic call (Species/Cell Type: Human diploid fibroblasts, Assay Type: Unscheduled DNA synthesis (UDS) in vitro, DNA effects, Assay Code: UDH+, Evaluation Type: Evaluation A (Pre-1980)): active; positive | call [12]: active; positive

C=C(Cl)CSC(=S)N(CC)CC
call [2]: active; positive | mutagenic call [9]: active; positive
